The values that follow come from patent publication US20260337125A1, “RADIOLABELED TYROSINE DERIVATIVE AND APPLICATION THEREOF” (Osaka University, priority 2022, published 2026).

Data set [1] is described as follows: Measurement of accumulated amounts of 211At-labeled compounds in PANC1 tumor-bearing mice. In kind it is in vivo, human (PANC1) in Balb/c-nu/nu mice. To be noted: tumor, iv, 0.1 MBq/animal, 0.1 MBq/0.2 mL per mouse, tail vein, read-out: tumor accumulation. The method, then: Radiation doses before and after the administration were measured, and a difference between them was defined as an injected dose (ID). Ten minutes and one hour after administration, the mice were anesthetized by isoflurane inhalation, the tumors were isolated by autopsy in chronological order, and their radiation doses and weights were measured using a gamma counter (2480 Wizard^2, PerkinElmer) and a semimicro scale (Shimadzu Corporation, readability 10 μg), respectively. For comparison between accumulated amounts, accumulated amounts per unit amount (% ID/g) were calculated.
In Table 1, the amounts of the ^211At-labeled compounds accumulated in tumors of the PANC1 tumor-bearing models (% ID/g) are shown. It should be noted that in Table 1, “OMe” is ^211At-AAMT-OMe, “OEt” is ^211At-AAMT-OEt, “OPr” is ^211At-AAMT-OPr, and “OH” is ^211At-AAMT.

The test system of data set [2] is human pancreatic cancer cell line (PANC1). As to the kind of experiment: Imaging of mice subcutaneously transplanted with human pancreatic cancer cell line PANC1. In kind it is in vivo, human (PANC1) in Balb/c-nu/nu mice. To be noted: 2 hours after administration, 0.5 MBq/0.2 mL per mouse, tail vein.
Source text: Immunodeficient mice (Balb/c-nu/nu, 5-week-old, male) were habituated for 1 week and then subcutaneously transplanted with a human pancreatic cancer cell line (PANC1, 1×10^7 cells/mouse). After the transplantation, the mice were observed over time until tumor reached a size large enough for imaging (about 1000 mm^3). […] Two hours after administration, the mice were anesthetized by isoflurane inhalation, and planar images were taken using a γ camera (E-cam, Siemens).
In data set [3] the test system is CDDP-resistant A549 (A549 CDDP-r). Conditions: 48 hours, 37 °C, Cell counting kit-8. The method, then: Two days before experiment, A549 and CDDP-resistant A549 (A549 CDDP-r) were each seeded in a 96-well plate at a concentration of 1×10^5 cells/mL. ^211At-AAMT-OMe or ^211At-AAMT adjusted to a predetermined concentration was added to A549 cells and CDDP-resistant A549 cells, respectively, and the cells were cultured (CO2 5%, 37 °C). After the cultivation for 48 hours, Cell counting kit-8 (DOJINDO LABORATORIES) was added. After the addition, the cells were cultured at 37 °C for 1 hour, and cell viability was measured using absorbance at 450 nm as an indicator.
(In general: Formazan colour is commonly taken as a measure of viable cells.)

For data set [4] the following is noted: background art; cited from earlier work.
Data set [5] concerns gemcitabine-resistant human pancreatic cancer cell line, PANC1 (PANC1 Gem-r). As to the kind of experiment: Cell viability of Gemcitabine-resistant PANC1 (PANC1 Gem-r) with gemcitabine. Type of data set: cell-based. To be noted: gemcitabine 30 μg/mL. The method, then:
Gemcitabine (Gem) was added to a human pancreatic cancer cell line, PANC1 at an initial concentration of 100 ng/mL. After 3 days, dead cells were removed, and gemcitabine was again added. Cells that grew like a human pancreatic cancer cell line, PANC1 even in the presence of gemcitabine were isolated and maintained for 3 months while gradually increasing the concentration of gemcitabine in a culture medium.

On to `C[C@](N)(Cc1ccc(O)c([At])c1)C(=O)O` [^211At-AAMT, astato(^211At)-α-methyl-L-tyrosine, reference compound], for which, in data set [1] (10 minutes after administration), the tissue uptake at 10 min is 0.29 %ID/g. Further, in data set [1] (1 hour after administration), the tissue uptake at 1 h stood at 2.49 %ID/g. Further, the “accumulation in tumor site (planar γ camera image)” value in data set [2] is recorded as “accumulated in the tumor sites”. Also, the cytotoxicity entry in data set [3] is recorded as “has cytotoxicity against CDDP-resistant A549 (A549 CDDP-r)”. Besides, the clearance entry in data set [4] is on record as “fast clearance”.
On to `Nc1ccn([C@@H]2O[C@H](CO)[C@@H](O)C2(F)F)c(=O)n1` [gemcitabine, Gemcitabine], for which the cell viability entry in data set [5] was “still alive even at 30 μg/mL”.
